Results on 10 compounds are retold here after patent publication US9193699B2, “Apoptosis inducing compounds” (INSTITUT NATIONAL DE LA SANTE ET DE LA RECHERCHE MEDICALE …, priority 2011, dated 2015).

Assay type in all cases: cell-based
In assay [1] the test system is Human breast tumor SUM149 cells. The experiment in a line: Inhibition of tumor cell growth (alamar blue), SUM149. The conditions noted are these: 120 h, calculated on the basis of cell growth inhibition, day 5, alamar blue, read-out: IC50 for the inhibition of SUM149 tumor cells growth. The method, then: (§1) All biological experiments (Examples 2 to 9) have been performed with recommended cell line specific culture medium. For SUM149 and L226, culture medium is supplemented with 10% Fetal Calf Serum. For HME-1 and MCF-10A, culture medium is supplemented with 5% Horse Serum.
Human breast tumor SUM149 cells (Inflammatory Breast Cancer (IBC) of basal subtype) were plated in a 96 well plate at 3000 cells/100 μL at 37° C. in 5% CO2. Compounds 1, 3, 4, 5, 6, 7, 8, 9, 10, 11, 12, 13, 14 at 10 μM were added at day 0 and day 3. The number of viable cells was determined in triplicate at day 5 by incubating 10 μL of the alamar blue staining solution for 2 hours at 37° C. (FIG. 1).
Human breast tumor SUM149 cells were plated in a 96 well plate at 3000 cells/100 μL at 37° C. in 5% CO2. Serial dilutions of drugs (compounds 1, 3 or 4) ranging from 20 μM to 300 nM were added at day 0 and day 3. The number of viable cells was determined in triplicate at day 5 by incubating 10 μL of the alamar blue staining solution for 2 hours at 37° C. (FIG. 2).
IC50 values of compounds 1-14 for the inhibition of SUM149 and L226 tumor cells growth were measured (according to the experimental procedure of Examples 2 and 3):
Human breast tumor SUM149 cells were plated in a 96 well plate at 3000 cells/100 μL at 37° C. in 5% CO2 in recommended medium containing 10% FCS or in synthetic medium without FCS. Serial dilutions of drug (compound 4) ranging from 10 μM to 0.16 μM were added at day 0 and day 3. The number of viable cells was determined in triplicate at day 5 by incubating 10 μL of the alamar blue staining solution for 2 hours at 37° C. (FIG. 11). The […] in recommended medium containing 10% FCS was measured at 2 μM, while it was measured at 0.6 μM without FCS.

Assay [2] concerns Human breast tumor L226 cells. The experiment in a line: Inhibition of tumor cell growth (alamar blue), L226. Conditions: 120 h, calculated on the basis of cell growth inhibition, day 5, alamar blue. The method, then:
as §1
Human breast tumor L226 cells (Inflammatory Breast Cancer (IBC) of ERB-B2 subtype) were plated in a 96 well plate at 3000 cells/100 μL at 37° C. in 5% CO2. Serial dilutions of drugs (compounds 1, 3 or 4) ranging from 20 μM to 300 nM were added at day 0 and day 3. The number of viable cells was determined in triplicate at day 5 by incubating 10 μL of the alamar blue staining solution for 2 hours at 37° C. (FIG. 3).
IC50 values of compounds 1-14 for the inhibition of SUM149 and L226 tumor cells growth were measured (according to the experimental procedure of Examples 2 and 3): […]

Assay [3] deals with Human normal mammary epithelial MCF-10A cells. The experiment in a line: Effect on growth of normal cells (alamar blue), MCF-10A. Conditions: calculated on the basis of cell growth inhibition. As to the method: as §1
Human normal mammary epithelial MCF-10A cells were plated in a 96 well plate at 3000 cells/100 μL at 37° C. in 5% CO2. Serial dilutions of drugs (compounds 1, 3 or 4) ranging from 20 μM to 300 nM were added at day 0 and day 3. The number of viable cells was determined in triplicate at day 5 by incubating 10 μL of the alamar blue staining solution for 2 hours at 37° C. (FIG. 5).
(§2) IC50 values of compounds 1-14 for the inhibition of MCF-10A and HME-1 normal cells growth were also measured (according to the experimental procedure of Examples 4 and 5): […]

Assay [4] has as its system Human normal mammary epithelial HME-1 cells. The experiment in a line: Effect on growth of normal cells (alamar blue), HME-1. The conditions noted are these: HME1, calculated on the basis of cell growth inhibition. As to the method:
as §1
Human normal mammary epithelial HME-1 cells were plated in a 96 well plate at 3000 cells/100 μL at 37° C. in 5% CO2. Serial dilutions of drugs (compounds 1, 3 or 4) ranging from 20 μM to 300 nM were added at day 0 and day 3. The number of viable cells was determined in triplicate at day 5 by incubating 10 μL of the alamar blue staining solution for 2 hours at 37° C. (FIG. 4).
as §2

Assay [5] deals with caspase-3 and caspase-7 in SUM149 cells. The experiment in a line: Caspase 3/7 activation (Caspase-Glo 3/7) in SUM149 tumor cells. Conditions: Homo sapiens, R=RLU at 20 μM/RLU at 0 μM, 24 h, read-out: Caspase 3/7 activation R (RLU fold increase from untreated cells). The method, then:
Human breast tumor SUM149 cells were plated in a 96 well plate at 10000 cells/100 μL at 37° C. in 5% CO2. Serial dilutions of drugs (compounds 1, 3 or 4) ranging from 20 μM to 300 nM were added at day 0. Active caspase-3 and caspase-7 were measured in triplicate after 24 h treatment by incubating 50 μL of the Caspase-Glo 3/7 reagent for 60 min at 25° C. This reagent containing the proluminescent tetrapeptide sequence DEVD in a cell lysis buffer (Promega) (FIG. 6).
(§3) Caspase 3/7 activation in SUM149 and L226 tumor cells was measured.
(§4) The calculated values R correspond to Relative Luminescence Units (RLU) fold increase from untreated cells (R=RLU at 20 μM/RLU at 0 μM).

The test system of assay [6] is caspase-3 and caspase-7 in L226 cells. The experiment in a line: Caspase 3/7 activation (Caspase-Glo 3/7) in L226 tumor cells. The conditions noted are these: Homo sapiens, R=RLU at 20 μM/RLU at 0 μM, 24 h, read-out: Caspase 3/7 activation R (RLU fold increase from untreated cells). The method, then:
Human breast tumor L226 cells were plated in a 96 well plate at 10000 cells/100 μL at 37° C. in 5% CO2. Serial dilutions of drugs (compounds 1, 3 or 4) ranging from 20 μM to 300 nM were added at day 0. Active caspase-3 and caspase-7 were measured in triplicate after 24 h treatment by incubating 50 μL of the Caspase-Glo 3/7 reagent for 60 min at 25° C. This reagent containing the proluminescent tetrapeptide sequence DEVD in a cell lysis buffer (Promega) (FIG. 7).
as §3, §4

In assay [7] the test system is caspase-3 and caspase-7 in MCF-10A cells. The experiment in a line: Caspase 3/7 activation (Caspase-Glo 3/7) in MCF-10A normal cells. The conditions noted are these: Homo sapiens, R=RLU at 20 μM/RLU at 0 μM, 24 h, read-out: Caspase 3/7 activation R (RLU fold increase from untreated cells). As to the method: Human normal mammary epithelial MCF-10A cells were plated in a 96 well plate at 10000 cells/100 μL at 37° C. in 5% CO2. Serial dilutions of drugs (compounds 1, 3 or 4) ranging from 20 μM to 300 nM were added at day 0. Active caspase-3 and caspase-7 were measured in triplicate after 24 h treatment by incubating 50 μL of the Caspase-Glo 3/7 reagent for 60 min at 25° C. This reagent containing the proluminescent tetrapeptide sequence DEVD in a cell lysis buffer (Promega) (FIG. 9).
as §4
(§5) Caspase 3/7 activation in MCF-10A and HME-1 normal cells was also measured.

The test system of assay [8] is caspase-3 and caspase-7 in HME-1 cells. The experiment in a line: Caspase 3/7 activation (Caspase-Glo 3/7) in HME-1 normal cells. The conditions noted are these: Homo sapiens, HME1, R=RLU at 20 μM/RLU at 0 μM, 24 h, read-out: Caspase 3/7 activation R (RLU fold increase from untreated cells). As to the method:
Human normal mammary epithelial HME-1 cells were plated in a 96 well plate at 10000 cells/100 μL at 37° C. in 5% CO2. Serial dilutions of drugs (compounds 1, 3 or 4) ranging from 20 μM to 300 nM were added at day 0. Active caspase-3 and caspase-7 were measured in triplicate after 24 h treatment by incubating 50 μL of the Caspase-Glo 3/7 reagent for 60 min at 25° C. This reagent containing the proluminescent tetrapeptide sequence DEVD in a cell lysis buffer (Promega) (FIG. 8).
as §4, §5

Another assay deals with Cancer stem cells (CSCs). The experiment in a line: Aldefluor assay of cancer stem cells (ALDH+ cells), FACS. The conditions noted are these: FIG. 12B. The method, then: Cancer stem cells (CSCs) are thought to contribute to tumor initiation, maintenance, resistance to therapy, and metastasis progression. Treatment with drugs enrich in resistant CSCs. In vitro, breast CSCs express high level of aldehyde dehydrogenase-1 (ALDH1), which can be detected by using a commercial assay (CSCs are “Aldefluor” positive). Briefly, cells were incubated in Aldefluor assay buffer containing ALDH substrate (BAAA (BODIPY®—aminoacetaldehyde), 1 μmol/L per 1×10^6 cells). Negative control was done in the presence of diethylaminobenzaldehyde (DEAB), a specific ALDH inhibitor. Cells were then incubated for 40 min at 37° C. Cells were analyzed with the LSRII flow cytometer (Becton-Dickinson). PI (Propidium Iodide) exclusion was used to gate viable cells.

As a reminder, the pIC50 is −log10 of the IC50, conventionally taken in molar units.

The structures appear in SMILES notation. pIC50: −log10 of the molar value.

In the case of `CC1(C)SCCN(S(=O)(=O)c2ccc(C(F)(F)F)cc2)[C@H]1C(=O)NO` [Compound 6, (3S)—N-hydroxy-4-[(4-trifluoromethylphenyl)sulfonyl]-2,2-dimethyl-3-thiomorpholine carboxamide], the pIC50 in assay [1] was 5.60; in [2] it was 5.30; in [3], less than 4.70; in [4], less than 4.70. The fold induction at 20 µM is 5.9 in assay [5], 2.8 in assay [6], 1 in assay [7] and 0.9 in assay [8].
As to `CC1(C)SCCN(S(=O)(=O)CC(c2ccccc2)c2ccccc2)[C@H]1C(=O)NO` [Compound 9], the negative logarithm of the IC50 (pIC50) in assay [1] is 5.00.
`CC1(C)SCCN(S(=O)(=O)c2ccccc2)[C@H]1C(=O)NO` [Compound 1, (3S)—N-hydroxy-4-(benzenesulfonyl)-2,2-dimethyl-3-thiomorpholine carboxamide]: the negative-log IC50 (pIC50) in assay [1] is 4.70; in assay [2], less than 4.70; in assay [3] it was less than 4.70; in assay [4], less than 4.70. Besides, the fold induction at 20 µM in [5], in assay [6], in assay [7] and in assay [8] was 1 throughout.
Consider `Cc1cc(C)c(S(=O)(=O)N2CCSC(C)(C)[C@@H]2C(=O)NO)c(C)c1` [Compound 11, (3S)—N-hydroxy-4-[(2,4,6-trimethylphenyl)sulfonyl]-2,2-dimethyl-3-thiomorpholine carboxamide], for which the pIC50 in [1] was 5.60; in assay [2] it was 5.60; in [3], 4.70; in assay [4], less than 4.70. For the same compound, the fold induction at 20 µM in assay [5] stood at 6.4; in assay [6], 8.7.
Consider `Cc1cc(C)cc(S(=O)(=O)N2CCSC(C)(C)[C@@H]2C(=O)NO)c1` [Compound 14, (3S)—N-hydroxy-4-[(3,5-dimethylphenyl)sulfonyl]-2,2-dimethyl-3-thiomorpholine carboxamide], for which, in assay [1], the pIC50 is 5.30. Moreover, the fold induction at 20 µM in [7] and in assay [8] was 1.1 in each case.
Regarding `CC1(C)SCCN(S(=O)(=O)c2ccc(CBr)cc2)[C@H]1C(=O)NO` [Compound 5, (3S)—N-hydroxy-4-[(4-bromomethylphenyl)sulfonyl]-2,2-dimethyl-3-thiomorpholine carboxamide], the pIC50 in assay [1] was 5.60; in [2], 4.70; in [3] it was less than 4.70; in assay [4], less than 4.70. For the same compound, the fold induction at 20 µM in [5] came out at 5.5; in [6], 3.2; in [7] it was 1; in assay [8] it was 1.1.
Consider `COc1cccc2c1C(=O)c1c(O)c3c(c(O)c1C2=O)C[C@@](O)(C(=O)CO)C[C@@H]3O[C@H]1C[C@H](N)[C@H](O)[C@H](C)O1` [doxorubicin, reference compound], for which the “aldefluor ratio (percent ALDH+ cells treated vs DMSO)” value with Cancer stem cells (CSCs) was “increases it”.
Take `CCCCCCCCCCCCc1ccc(S(=O)(=O)N2CCSC(C)(C)C2C(=O)NO)cc1` [Compound 10, (3S)—N-hydroxy-4-[(4-dodecyl)phenylsulfonyl]-2,2-di methyl-3-thiomorpholine carboxamide]: the negative-log IC50 (pIC50) was 5.60 in [1], 5.46 in assay [2], 4.70 in assay [3] and less than 4.70 in [4]. Besides, the fold induction at 20 µM in assay [5] was determined as 5.5; in assay [6], 8.9; in assay [7], 1.1; in assay [8], 0.8.
Take `CC1(C)SCCN(S(=O)(=O)c2ccc(F)cc2)[C@H]1C(=O)NO` [Compound 7, (3S)—N-hydroxy-4-[(4-fluorophenyl)sulfonyl]-2,2-dimethyl-3-thiomorpholine carboxamide]: in assay [1], the pIC50 is 4.70.
For the compound `CCCc1ccc(S(=O)(=O)N2CCSC(C)(C)[C@@H]2C(=O)NO)cc1` [Compound 13, (3S)—N-hydroxy-4-[(4-propylphenyl)sulfonyl]-2,2-dimethyl-3-thiomorpholine carboxamide], the pIC50 in [1] is 5.60; in assay [2], 5.60; in [3] it was less than 4.70; in assay [4] it was less than 4.70. The fold induction at 20 µM in assay [5] was found to be 5.4; in assay [6], 5.8; in assay [7], 1.1; in assay [8], 1.2.
